≈ marks a conversion by molar mass, not a printed value.
What was measured:
[1] = Inhibition of Plasmodium falciparum TM4/8.2 wild type DHFR NCSI haplotype
Plasmodium falciparum [2] = test: Antiplasmodial activity against Plasmodium falciparum CSL-2 harboring DHFR NRNL haplotype C59R/S108N/I164L triple mutant; type: functional, organism-based
Plasmodium falciparum [3] = test: Antiplasmodial activity against Plasmodium falciparum V1/S harboring DHFR IRNL haplotype N51I/C59R/S108N/I164L quadruple mutant; type: functional, organism-based
Plasmodium falciparum [4] = test: microbe, parasite or virus in culture; details: TM4/8.2
Vero = test: Cytotoxicity against African green monkey Vero cells; type: cell-based; details: chlorocebus sabaeus
Dihydrofolate reductase = target: T1, Dihydrofolate reductase (Homo sapiens, UniProt P00374)
T1 sequence (P00374 whole entry): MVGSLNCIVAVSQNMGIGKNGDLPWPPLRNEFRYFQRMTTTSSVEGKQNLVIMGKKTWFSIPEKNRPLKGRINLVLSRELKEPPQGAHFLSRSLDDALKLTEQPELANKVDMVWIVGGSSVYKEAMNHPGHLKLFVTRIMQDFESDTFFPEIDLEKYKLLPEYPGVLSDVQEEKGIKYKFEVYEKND

Plasmodium falciparum [5] = test: microbe, parasite or virus in culture; details: K1CB1
Plasmodium falciparum [6] = test: microbe, parasite or virus in culture; details: W2
[7] = Solubility of the compound; type: physicochemical

## CCc1nc(N)nc(N)c1-c1ccc(Cl)cc1 [PYRIMETHAMINE]
[1]
  Ki: 0.6 nM
Plasmodium falciparum [2]
  IC50: 42000 nM
Plasmodium falciparum [3]
  IC50: > 100000 nM

## Cc1nc(N)nc(N)c1OCCCOc1cc(Cl)c(Cl)cc1Cl
Plasmodium falciparum [3]
  IC50: 3500 nM
Plasmodium falciparum [4]
  IC50: 230 nM

## CCc1nc(N)nc(N)c1-c1cccc(Cl)c1
Plasmodium falciparum [2]
  IC50: 2530 nM
Plasmodium falciparum [3]
  IC50: 9100 nM
Vero
  Activity: 7 µM
Dihydrofolate reductase
  Ki: 1.6 nM
Plasmodium falciparum [4]
  IC50: 420 nM
Plasmodium falciparum [5]
  IC50: 1310 nM
Plasmodium falciparum [6]
  IC50: 3940 nM

## CCc1nc(N)nc(N)c1OCCCOc1ccc(-c2c(N)nc(N)nc2CC)cc1
[7]
  solubility: 1 µM (≈ 0.425 µg/mL)

From ChEMBL document CHEMBL4325930, “Hybrid Inhibitors of Malarial Dihydrofolate Reductase with Dual Binding Modes That Can Forestall Resistance” (ACS Med Chem Lett, 2018)
